The values below come from the OligoGym collection.

These antisense oligonucleotides have a phosphorothioate backbone; sugars and methylation of C are not fully specified.
Note: test concentration or dose not given here.

The target in the first data set is TRADD. To be noted: ASO.
GCATCCGACAGGACCACC returned a remaining target (mRNA or protein) (fraction of control) of 0.93.
In turn, GCCAGCAAAGCGTCCAGC had a remaining target (mRNA or protein) (fraction of control) of at least 1.
The same measure, in the same setting: then GCCCGCAGAATCGCAGCT, with 0.75.
The same measure, in the same setting: then GCCGCACTTCAGATTTCG, with at least 1; and GCGGCGGCGGCGGCTTCA, with at least 1.
The same measure, in the same setting: then GCGTAGGCATCCGACAGG, with 0.97; and GCTCGTACTCGTAGGCCA, with at least 1; and GCTGCCCACCCACTCTTC, with at least 1.
On to GCTGCTGGGCTAGGATGC, for which the remaining target (mRNA or protein) (fraction of control) is 0.84.
The sequence GGAACAGAAAAGTCTGGG gave a remaining target (mRNA or protein) (fraction of control) of 0.93.
Still for that read-out and setting: the value for GGAGGAAGCGGCCACAGG was 0.68.
The same measure, in the same setting: the value for GGATCTTCAGCATCTGCA was at least 1; that for GGATGGGAGAAGGTGAGG was 0.55.
The same measure, in the same setting: the value for GGGAAGGCAATCAACTCT was at least 1; that for GGGCAGGTGGCGGCGGCG was 0.7; that for GGTATGCGCTGCCCACCC was at least 1.
Take GGTGGCGGCGGCGGCGGC: the remaining target (mRNA or protein) (fraction of control) was 0.99.
On the same count and under the same terms, then GGTTCCCACGCCCGCCAG, with at least 1; and GTCCAGCGAGGACTCCAC, with 0.36; and GTCCTTCAGGCTCAGCGG, with 0.75.
The same measure, in the same setting: the value for GTGCGCGTAGGCATCCGA was at least 1.
The sequence TAGGCCAAGTGGAGTTTC displayed a remaining target (mRNA or protein) (fraction of control) of 0.58.
Still for that read-out and setting: the value for TCACTACAGGCTGACCCT was 0.74.
Still for that read-out and setting: then TCAGCCAGTTCTTCATCC, with at least 1; and TCAGGGTCCCGTGGATGG, with at least 1; and TCCACAAACAGGTATGCG, with at least 1.
Consider TCCAGGTTCTCCAAAAGC, for which the remaining target (mRNA or protein) (fraction of control) was determined as 0.46.
On to TCCTCTGCCAGGCTGGTG, for which the remaining target (mRNA or protein) (fraction of control) was at least 1.
Same read-out and setting: then TCTATCAAAGTACCTGAG, with at least 1.
Still for that read-out and setting: then TCTGTTGGTCCTTCAGGC, with at least 1; and TGCGGGTCGCTGCGGTGG, with 0.69.
Still for that read-out and setting: the value for TGCGGTGGATCTTCAGCA was at least 1.
Turning to TGCTCGTACAGTCCCTCG, the remaining target (mRNA or protein) (fraction of control) was at least 1.
Same read-out and setting: the value for TGGCTGCACCCCTGGTCT was at least 1; that for TGGGCTAGGATGCAACTC was 0.67.

Another data set has as its target AKT3. To be noted: ASO.
In the case of AAAGGTAACCTCCCACAC, the remaining target (mRNA or protein) (fraction of control) is 0.19.
The same measure, in the same setting: the value for AAATGTGTTTGGCTTTGG was at least 1; that for AACCCAACCTTCTTTCAC was at least 1; that for AACCTCCCACACATCATT was 0.22.
The same measure, in the same setting: then AACTGTGTCTCATAATTT, with at least 1; and AAGGTAAATCCACATCTT, with 0.66.
Same read-out and setting: the value for AAGTTTCTCATGGTCCTG was 0.43.
In turn, AATCCACATCTTGAGGTT showed a remaining target (mRNA or protein) (fraction of control) of at least 1.
Still for that read-out and setting: the value for AATGATTTTGCATCTGAA was 0.94; that for ACAATTCATTCTCTCCTC was at least 1; that for ACTGAAAAGTTGTTGAGG was at least 1.
The sequence AGAGAAGAAACTGTGTCT had a remaining target (mRNA or protein) (fraction of control) of at least 1.
AGCCTGGATAGCTTCTGT: the remaining target (mRNA or protein) (fraction of control) is at least 1.
Same read-out and setting: then AGCTTCTGTCCATTCTTC, with at least 1; and AGTCTACTGCTCGGCCAT, with 0.21.
On the same count and under the same terms, the value for ATATACATCTTGCCAGTT was 0.87.
Sequence ATATATTCTCCCCTCTTC had a remaining target (mRNA or protein) (fraction of control) of at least 1.
On the same count and under the same terms, the value for ATCAAGAGCCCTGAAAGC was 0.29; that for ATTATCAATTTGTGAAGT was at least 1; that for ATTCTCTCCTCTTCTTGC was at least 1.
The same measure, in the same setting: the value for ATTCTTCATCAAAATATC was at least 1; that for ATTTGGATCCTTTATCAA was at least 1.
Still for that read-out and setting: then CAACCCCTAGGCCCCACC, with 0.16.
For the sequence CATCTTGAGGTTTCTCTT, the remaining target (mRNA or protein) (fraction of control) was at least 1.
CCATCTGTCTTCAAAAGG came in with a remaining target (mRNA or protein) (fraction of control) of at least 1.
The same measure, in the same setting: then CCCACACATCATTTCATA, with 0.25; and CTACATGAAATGTTCTCT, with at least 1.
Same read-out and setting: then CTAGGCCCCACCAGTCTA, with 0.17; and CTATGAATGAGCCATCTG, with 0.99; and CTCCACCAAGGCGTTTAT, with 0.12.
Still for that read-out and setting: then CTCTTCTAAACCCAACCT, with 0.79.
With CTCTTTATATCCTATGAA, the remaining target (mRNA or protein) (fraction of control) is at least 1.
The same measure, in the same setting: then CTGAAGAGAGTGTTCGAG, with at least 1; and CTGCTCGGCCATAGTCAT, with 0.19; and CTGTTTTCATTAACTGGC, with at least 1.
Same read-out and setting: then CTTTTGCGTCATCTGGTC, with at least 1.
On the same count and under the same terms, then GAGACATCTGATTATAAA, with at least 1; and GAGGAAATTTAATGTCTT, with at least 1; and GATCCTTTATCAAGAGCC, with 0.4.
GATTATAAATGTGTTTGG came in with a remaining target (mRNA or protein) (fraction of control) of at least 1.
As to GCCAGTTTACTCCAGAGA, the remaining target (mRNA or protein) (fraction of control) was determined as 0.44.
The same measure, in the same setting: then GCCCTGAAAGCAATGATT, with 0.34.
Same read-out and setting: the value for GCCTCTGCAGTCTGTCTG was at least 1.
Same read-out and setting: then GCGTCATCTGGTCCTCCA, with 0.26.
The sequence GCGTTTATTTGGATCCTT returned a remaining target (mRNA or protein) (fraction of control) of at least 1.
In turn, GGAAGTATCTTGGCCTCC displayed a remaining target (mRNA or protein) (fraction of control) of at least 1.
Same read-out and setting: then GGAGTATCTACATGAAAT, with at least 1.
Same read-out and setting: then GGTTTAAGAGGAGGTACA, with at least 1.
The sequence GTAATAGTCTGAGCTGTA came in with a remaining target (mRNA or protein) (fraction of control) of 0.88.
Still for that read-out and setting: the value for GTAGTCCACTGGAGACAT was at least 1.
